#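 A five-concentration, 48-hour dose response in 96-well plates underlies each endpoint, interpolated linearly between surrounding concentrations. Abbreviation: GI50, concentration required for 50% inhibition of growth. TGI: total growth inhibition.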
# Key:
# Test in all cases: growth of human tumour cells (NCI), 48 h
# CCRF-CEM leukemia = test system: CCRF-CEM leukemia
# SF-539 CNS = test system: SF-539 CNS
# HOP-62 NSCLC = test system: HOP-62 NSCLC
# SK-MEL-2 melanoma = test system: SK-MEL-2 melanoma
# BT-549 breast = test system: BT-549 breast
# RXF 393 renal = test system: RXF 393 renal
# IGROV1 ovarian = test system: IGROV1 ovarian
# HOP-92 NSCLC = test system: HOP-92 NSCLC
# MCF7 breast = test system: MCF7 breast
# HCC-2998 colon = test system: HCC-2998 colon
# T-47D breast = test system: T-47D breast
# MDA-MB-435 = test system: MDA-MB-435
# SF-268 CNS = test system: SF-268 CNS
# SK-MEL-28 melanoma = test system: SK-MEL-28 melanoma
# NCI-H226 lung = test system: NCI-H226 lung
# HT29 colon = test system: HT29 colon
# EKVX NSCLC = test system: EKVX NSCLC
# MALME-3M melanoma = test system: MALME-3M melanoma
# PC-3 prostate = test system: PC-3 prostate
# OVCAR-5 ovarian = test system: OVCAR-5 ovarian
# COLO 205 colon = test system: COLO 205 colon
# DU-145 prostate = test system: DU-145 prostate
# KM12 colon = test system: KM12 colon
# RPMI-8226 leukemia = test system: RPMI-8226 leukemia
# 786-0 renal = test system: 786-0 renal
# SNB-75 CNS = test system: SNB-75 CNS
# M14 melanoma = test system: M14 melanoma
# HL-60(TB) leukemia = test system: HL-60(TB) leukemia
# UO-31 renal = test system: UO-31 renal
smiles,measurement,setting,value
OC(CNc1ccnc2cc(Cl)ccc12)CNC1CCCCC1 (stereo not drawn),GI50,CCRF-CEM leukemia,7.29 µM
same,TGI,CCRF-CEM leukemia,42.4 µM
same,GI50,SF-539 CNS,1.76 µM
same,TGI,SF-539 CNS,3.38 µM
same,GI50,HOP-62 NSCLC,12.3 µM
same,TGI,HOP-62 NSCLC,26.3 µM
same,GI50,SK-MEL-2 melanoma,2.28 µM
same,TGI,SK-MEL-2 melanoma,4.86 µM
same,GI50,BT-549 breast,3.69 µM
same,TGI,BT-549 breast,16.7 µM
same,GI50,RXF 393 renal,2.5 µM
same,TGI,RXF 393 renal,8.72 µM
same,GI50,IGROV1 ovarian,10.1 µM
same,TGI,IGROV1 ovarian,24.4 µM
same,GI50,HOP-92 NSCLC,1.42 µM
same,TGI,HOP-92 NSCLC,7.12 µM
same,GI50,MCF7 breast,7.36 µM
same,TGI,MCF7 breast,21.9 µM
same,GI50,HCC-2998 colon,3.79 µM
same,TGI,HCC-2998 colon,11 µM
same,GI50,T-47D breast,4.54 µM
same,TGI,T-47D breast,18.7 µM
same,GI50,MDA-MB-435,1.7 µM
same,TGI,MDA-MB-435,3.28 µM
same,GI50,SF-268 CNS,8.23 µM
same,TGI,SF-268 CNS,21.9 µM
same,GI50,SK-MEL-28 melanoma,1.76 µM
same,TGI,SK-MEL-28 melanoma,3.31 µM
same,GI50,NCI-H226 lung,12.9 µM
same,TGI,NCI-H226 lung,34.9 µM
same,GI50,HT29 colon,3.26 µM
same,TGI,HT29 colon,12.2 µM
same,GI50,EKVX NSCLC,6.15 µM
same,TGI,EKVX NSCLC,27 µM
same,GI50,MALME-3M melanoma,1.89 µM
same,TGI,MALME-3M melanoma,3.8 µM
same,GI50,PC-3 prostate,8.08 µM
same,TGI,PC-3 prostate,28.7 µM
same,GI50,OVCAR-5 ovarian,12.6 µM
same,TGI,OVCAR-5 ovarian,38.4 µM
same,GI50,COLO 205 colon,1.69 µM
same,TGI,COLO 205 colon,3.31 µM
same,GI50,DU-145 prostate,13.9 µM
same,TGI,DU-145 prostate,28.2 µM
same,GI50,KM12 colon,13 µM
same,TGI,KM12 colon,27.3 µM
same,GI50,RPMI-8226 leukemia,10.1 µM
same,TGI,RPMI-8226 leukemia,36.4 µM
same,GI50,786-0 renal,11.8 µM
same,TGI,786-0 renal,24.8 µM
same,GI50,SNB-75 CNS,2.1 µM
same,TGI,SNB-75 CNS,8.31 µM
same,GI50,M14 melanoma,1.65 µM
same,TGI,M14 melanoma,3.11 µM
same,GI50,HL-60(TB) leukemia,10.9 µM
same,TGI,HL-60(TB) leukemia,28.7 µM
same,GI50,UO-31 renal,2.22 µM
same,TGI,UO-31 renal,11 µM

# From PubChem BioAssay (NCI)
